From the NIST ThermoML archive (doi:10.1016/j.jct.2019.03.025)

Conditions: Liquid, Vibrating tube method

Cc1cccc(C)c1 [1,3-dimethylbenzene]
mass density [kg/m3]
Conditions | 293.15 K | 303.15 K | 313.15 K | 323.15 K | 333.15 K | 343.15 K | 353.15 K | 363.15 K
100 kPa | 864.2 | 855 | 846.7 | 837.7 | 829 | 820 | 811.3 | 802.2
1000 kPa | 864.4 | 855.4 | 846.9 | 838.6 | 829.8 | 821.1 | 812.2 | 803.3
3000 kPa | 865.8 | 857.5 | 848.6 | 840.2 | 831.7 | 823 | 814.3 | 805.5
5000 kPa | 866.9 | 858.8 | 850.1 | 841.9 | 833.4 | 825 | 816.2 | 807.6
10000 kPa | 870.5 | 862.3 | 854 | 845.9 | 837.6 | 829.4 | 821 | 812.4
15000 kPa | 873.8 | 865.8 | 857.6 | 849.8 | 841.6 | 833.6 | 825.7 | 817.6
20000 kPa | 877 | 869 | 861.1 | 853.6 | 845.6 | 837.9 | 829.8 | 821.8
25000 kPa | 880.2 | 872.2 | 864.5 | 857 | 849.3 | 841.7 | 834 | 826
30000 kPa | 883.2 | 875.3 | 867.7 | 860.4 | 852.8 | 845.5 | 838 | 830.2
35000 kPa | 886 | 878.2 | 870.9 | 863.7 | 856.2 | 849.2 | 841.7 | 834.2
40000 kPa | 888.7 | 881 | 873.8 | 866.9 | 859.7 | 852.5 | 845.3 | 838.1
50000 kPa | 894.4 | 886.7 | 879.8 | 873 | 866 | 859.1 | 852.1 | 845.2
60000 kPa | 899.1 | 892 | 885.1 | 878.8 | 871.9 | 865 | 858.5 | 852
